According to PMC11093745 (Nature Methods, 2024):
pKd: −log10 of the molar value.

Molecular target: T1, cAMPinG1 (Mus musculus, UniProt Q9DBC7, DEL187-189)
T1 construct: gene Prkar1a; PKA-R1α residues 108-186 and 190-381, N-terminus removed, cpGFP (from GCaMP6f) inserted in the β4–β5 loop replacing 187-189, engineered linkers/cpGFP, N-terminal RSET; expressed in HEK293T, lysate
Assay: sensor fluorescence titration in HEK293T lysate, Hill fit
Type: binding

T1 sequence (Q9DBC7 108-186, stated change not applied): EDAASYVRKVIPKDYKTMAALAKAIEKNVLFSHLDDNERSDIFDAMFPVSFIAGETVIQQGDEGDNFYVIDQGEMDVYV
T1 sequence (Q9DBC7 190-381, stated change not applied): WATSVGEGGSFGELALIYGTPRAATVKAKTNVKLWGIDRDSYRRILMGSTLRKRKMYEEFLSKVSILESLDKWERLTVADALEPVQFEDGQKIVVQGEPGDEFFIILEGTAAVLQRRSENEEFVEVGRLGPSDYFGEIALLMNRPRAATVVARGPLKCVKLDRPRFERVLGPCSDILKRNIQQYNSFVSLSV

## Nc1nc2c(ncn2[C@@H]2O[C@@H]3COP(=O)(O)O[C@H]3[C@H]2O)c(=O)[nH]1 [cGMP]
  pKd: 4.91
